Values belong to the compound of their own block, whether it stands above or below them.
How the values were obtained:
[1] = system: K. pneumoniae (ATCC 13383); assay: MIC against K. pneumoniae; type: cell-based; conditions: Klebsiella pneumoniae, ATCC13383; Gram −; 16 h, 37° C.
Procedure: (§1) Minimum Inhibitory Concentrations (MICs) against Bacteria. The antimicrobial activity of the compounds was tested on the following six bacteria strains: K. pneumoniae (ATCC 13383), P. aeruginosa (ATCC27853), E. coli (ATCC 25922), vancomycin-resistant Enterococcus faecalis (ATCC 700802), Methicillin-resistant S. aureus (MRSA, ATCC 33591), Methicillin-resistant S. epidermidis (MRSE, RP62A). The procedures were followed as reported previously (Hancock et al., Immunobiology 2006, 211, 315-322). Briefly, a single colony of each bacterium was inoculated in 3 mL TSB medium and incubated overnight at 37° C. Then the bacteria culture was diluted at 1:100 and the bacteria were allowed to grow to mid-logarithmic phase. Next, 50 μL of 2-fold serial dilutions of compounds (0.1-25 μg/mL) were added the 96-well plate containing aliquots of 50 μL of bacteria suspension (1×10^6 CFU/mL) in each well. The mixture was incubated at 37° C. for 16 h, and their absorption at 600 nm wavelength was read on a Biotek Synergy HT microtiter plate reader. […] The experiments were repeated at least three times with duplicates each time. HC50 means the concentration causing 50% hemolysis.

[2] = system: human red blood cells (hRBCs); assay: Hemolytic assay; type: cell-based; conditions: concentration causing 50% hemolysis, 37° C., 1 h
Procedure: Hemolytic assays. The freshly drawn, K2EDTA treated human red blood cells (hRBCs) were washed with 1×PBS buffer, and centrifuged at 3500 rpm for 10 min. The step was repeated until the supernatant became clear. The supernatant was removed, and the RBCs were diluted into 5% v/v suspension. 50 μL of the suspension was incubated with 50 μL of compounds of different concentrations at 37° C. for 1 h. The mixture was centrifuged at 3500 rpm for 10 min. Subsequently, to 30 μL of the supernatant 100 μL PBS was added, and the absorbance of the mixture at 540 nm was read on a Biotek Synergy HT plate reader. The positive control was 2% Triton X-100, and the negative control was 1×PBS alone. The hemolysis activity was calculated by the formula % hemolysis=(Abssample−AbsPBS)/(AbsTriton−AbsPBS)×100%. The experiment was repeated at least three times with duplicates each time.

six bacteria strains = assay: MIC, summary statements over the panel of tested bacteria; type: cell-based
Procedure: as §1

[3] = system: P. aeruginosa (ATCC27853); assay: MIC against P. aeruginosa; type: cell-based
Procedure: as §1

[4] = system: vancomycin-resistant Enterococcus faecalis (ATCC 700802); assay: MIC against VRE; type: cell-based; conditions: Gram +; 16 h, 37° C.
Procedure: as §1

[5] = system: Methicillin-resistant S. epidermidis (MRSE, RP62A); assay: MIC against MRSE; type: cell-based; conditions: Staphylococcus epidermidis, Gram +, 16 h, 37° C.
Procedure: as §1

[6] = system: Methicillin-resistant S. aureus (MRSA, ATCC 33591); assay: MIC against MRSA; type: cell-based; conditions: Staphylococcus aureus; Gram +; 16 h, 37° C.
Procedure: as §1

E. coli (ATCC 25922) = assay: Minimum inhibitory concentration (MIC) against E. coli; type: cell-based; conditions: Escherichia coli, ATCC25922; Gram −; 16 h, 37° C.
Procedure: as §1

E. coli [7] = assay: Time-kill study; type: cell-based; conditions: for time to completely remove/kill all bacteria: 12.5 μg/mL
Procedure: The killing activity was monitored for the first 2 h. The concentrations for compound 11 were 2×MIC, 4×MIC, and 8×MIC, respectively.
Time-kill studies were conducted to investigate the bacterial killing kinetics of compounds 11 and 12 by using E. Coli. Briefly, the bacteria […] grew to mid-logarithmic phase in TSB medium, from which the suspension (10^6 CFU/ml) was made. The suspension was incubated with different concentrations of 11 or 12 for 10 min, 30 min, 1 h and 2 h respectively. The mixtures were diluted by 10^2 to 10^4 fold and spread on TSB agar plates. After incubation at 37° C. overnight, the colonies on the plates were counted and plotted against the incubation time. […] Cell colonies were counted in agar plates at 12.5, 25, and 50 μg/mL. Compound 11 at the concentration of 12.5 or 25 μg/mL completely removed all bacteria in 2 hours, and at 50 μg/mL it completely removed bacteria in 0.5 hour. Compound 12 killed E. Coli completely in 0.5 hour at the concentration of 12.5 μg/mL.

S. aureus = assay: Fluorescence microscopy (DAPI/PI) of bacterial membranes, S. aureus; type: cell-based; conditions: 10 μg/mL, 2 h
Procedure: (§2) Fluorescence microscopy studies were conducted to evaluate the ability of compound 12 to compromise membranes of S. aureus (Gram-positive bacterium) and E. coli (Gram-negative bacterium). Fluorescent agent 4′,6-diamidino-2-phenylindole (DAPI) was used to stain membranes of bacterial cells with blue fluorescence regardless of cell viability, and the red fluorescence of propidium iodide (PI) due to the DNA intercalation was used to stain impaired membranes. After MRSA and E. Coli grew to mid-logarithmic phase, the compound 12 was incubated with the bacteria at 37° C. for 2 h. The mixture was then centrifuged at 5000 rpm for 15 min. The cell pellets were washed with the PBS buffer for three times, and incubated with PI (5 μg/mL) and DAPI (10 μg/mL) for 15 min sequentially on ice in the dark. The mixture was then centrifuged and the pellets were washed with the PBS buffer. Next, 10 μL of the samples were placed on chamber slides and observed under Zeiss Axio Image Zloptical microscope using 100× oil-immersion objective.

MRSA = assay: Drug-resistance study, 14 passages, MRSA; type: cell-based, S. aureus; conditions: incubated at ½ MIC every day
Procedure: (§3) Bacterial resistance tests were conducted using compound 12. The compound was incubated with either MRSA or E. Coli in the well at the concentration of half-MIC (½ MIC, 10^6 CFU/ml) every day and tested for their activity through 14 successive passages.

E. coli [8] = assay: Drug-resistance study, 14 passages, E. coli; type: cell-based; conditions: incubated at ½ MIC every day
Procedure: as §3

E. coli [9] = assay: Fluorescence microscopy (DAPI/PI) of bacterial membranes, E. coli; type: cell-based; conditions: 10 μg/mL, 2 h
Procedure: as §2

MIC [1]: > 25 µg/mL
MIC ([3]; Pseudomonas aeruginosa, ATCC27853, Gram −, 16 h, 37° C.): > 25 µg/mL
MIC [4]: 6 to 12 µg/mL
MIC [5]: 1.5 µg/mL
MIC [6]: 0.75 µg/mL
MIC (E. coli (ATCC 25922)): 1.5 to 3 µg/mL
Compound: CCCCCCN1C(=N)N(CC(=O)NCCCOCCOCCOCCCNC(=O)CN2C[C@H](Cc3ccccc3)N(CCCCCC)C2=N)C[C@@H]1Cc1ccccc1 [Compound 16]
Hemolysis (HC50) [2]: 200 µg/mL
antibacterial activity against the tested bacteria (in words) (six bacteria strains): reduced activity

Compound: N#CNc1cccc(NC(=O)CN2C[C@H](Cc3ccccc3)N(CCCc3ccccc3)C2=N)c1 [Compound 7]
antibacterial activity against the tested bacteria (in words) (six bacteria strains): negligible activity

MIC (E. coli (ATCC 25922)): 0.75 to 1.5 µg/mL
Compound: CCCCCCN1C(=N)N(CC(=O)NCCCCNC(=O)CN2C[C@H](Cc3ccccc3)N(CCCCCC)C2=N)C[C@@H]1Cc1ccccc1 [Compound 13]
activity against P. aeruginosa (in words) [3]: reduced activity

Compound: CCCCCCCCN1C(=N)N(CC(=O)Nc2cccc(NC(=O)CN3C[C@H](Cc4ccccc4)N(CCCCCCCC)C3=N)c2)C[C@@H]1Cc1ccccc1 [Compound 18]
antibacterial activity against the tested bacteria (in words) (six bacteria strains): decreased activity

Compound: CCCCCCN1C(=N)N(CC(=O)NCCCCCCCCNC(=O)CN2C[C@H](Cc3ccccc3)N(CCCCCC)C2=N)C[C@@H]1Cc1ccccc1 [Compound 15]
activity against P. aeruginosa (in words) [3]: reduced activity

Compound: CCCCCCN1C(=N)N(CC(=O)Nc2ccc(NC(=O)CN3C[C@H](Cc4ccccc4)N(CCCCCC)C3=N)cc2)C[C@@H]1Cc1ccccc1 [Compound 11]
antibacterial activity against the tested bacteria (in words) (six bacteria strains): potent and broad-spectrum activity
time to completely remove/kill all bacteria (E. coli [7]): 2 h
time to completely remove bacteria (E. coli [7]; 50 μg/mL): 0.5 h

Compound: N=C1N(CC(=O)Nc2cccc(NC(N)=O)c2)C[C@H](Cc2ccccc2)N1CCCc1ccccc1 [Compound 8]
antibacterial activity against the tested bacteria (in words) (six bacteria strains): negligible activity

Compound: CCCCCCN1C(=N)N(CC(=O)Nc2cccc(NC(=O)CN3C[C@H](Cc4ccccc4)N(CCCCCC)C3=N)c2)C[C@@H]1Cc1ccccc1 [Compound 12]
membrane disruption (red fluorescence under the PI channel) (S. aureus): membranes of these bacteria were disrupted
MIC after 14 passages (MRSA): virtually constant
antibacterial activity against the tested bacteria (in words) (six bacteria strains): potent and broad-spectrum activity
MIC after 14 passages (E. coli [8]): virtually constant
membrane disruption (red fluorescence under the PI channel) (E. coli [9]): membranes of these bacteria were disrupted
time to completely remove/kill all bacteria (E. coli [7]): 0.5 h

Compound: CCCCCCCCN1C(=N)N(CC(=O)Nc2ccc(NC(=O)CN3C[C@H](Cc4ccccc4)N(CCCCCCCC)C3=N)cc2)C[C@@H]1Cc1ccccc1 [Compound 17]
antibacterial activity against the tested bacteria (in words) (six bacteria strains): decreased activity

MIC [6]: 0.75 to 1.5 µg/mL
Compound: CCCCCCN1C(=N)N(CC(=O)Nc2cccc(NC(=O)CN3C[C@H](CC(C)C)N(CCCCCC)C3=N)c2)C[C@@H]1CC(C)C [Compound 23]
antibacterial activity against the tested bacteria (in words) (six bacteria strains): slightly less effective

Compound: CCCCCCN1C(=N)N(CC(=O)NCCCCCCNC(=O)CN2C[C@H](Cc3ccccc3)N(CCCCCC)C2=N)C[C@@H]1Cc1ccccc1 [Compound 14]
activity against P. aeruginosa (in words) [3]: reduced activity
